PMC11106739, “Discovery and Derivatization of Tridecaptin Antibiotics with Altered Host Specificity and Enhanced Bioactivity” (ACS Chemical Biology, 2024)
Values after ≈ are worked out from the molar mass of the structure shown. Where a SMILES comes first, the peptide text is derived from it. [ ]: non-standard residue; d: D form. The star is where a group is joined. d(aIle) = CC[C@H](C)[C@@H](N)C(=O)O; dDab = NCC[C@@H](N)C(=O)O; Octanoyl = CCCCCCCC(=O)*; Dab = NCC[C@H](N)C(=O)O

How the values were obtained:
[1] = system: Gram-positive lipid II / S. aureus USA300 (MRSA); assay: Lipid II antagonization assay; type: cell-based, Staphylococcus aureus; settings: compound at 8x MIC, 5-fold molar excess of Gram-positive lipid II, MHB with 0.002% polysorbate-80, 37 °C, 18 h, resazurin, triplicates
Experimental: Laboratory Institute (CLSI) guidelines. Gram-positive lipid II, containing lysine at position 3 of the pentapeptide, was prepared by total chemical synthesis.1,2 Lipid II in 1 : 1 chloroform : methanol (v/v) was added to a polypropylene 96-well plate (5-fold molar excess compared to test antibiotics) and the organic solvent was allowed to evaporate. Oct-TriA5 and vancomycin in MHB (50 µL, 16xMIC) were added to the wells with the 5-fold molar excess of pure Gram-positive lipid II in triplicates and to the control wells without lipid II. Single colony of S. aureus USA300 (MRSA) from a fresh blood agar plate was suspended in TSB and grown to an OD600 of 0.5. The bacterial culture then was diluted in MHB with 0.002% polysorbate-80 to reach 10^6 CFU/mL and 50 µL were mixed with test compounds to achieve the final concentration of 8xMIC for all tested compounds. The plate was incubated at 37°C for 18 h with constant shaking (600 rpm) and subsequently inspected for visible bacterial growth. To visualize the viability of the indicator strain, resazurin sodium salt solution (Merck, Dorset, UK) was added to the cultures to achieve the final concentration of 0.0015% (w/v) and incubated at RT for 1 h.
Figure S4. HPLC trace showing the reinjection of purified Oct-TriD (3). The peptide eluted as a single peak at 17.263 min using the HPLC method A.
Figure S5. […]

P. aeruginosa PAO1 = type: cell-based, Pseudomonas aeruginosa; settings: PAO1, 20 h
Summary of the method: (§1)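 Broth microdilution MICs per CLSI in cation-adjusted Mueller Hinton broth, compounds at final 0.06 to 64 μg/mL. Direct colony suspensions at 0.5 McFarland were diluted to a target 2 × 10^5 CFU/mL; plates were incubated 20 h at 35 °C and MIC was read visually.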

P. aeruginosa 1218019 = type: cell-based, Pseudomonas aeruginosa; settings: 1218019, 20 h
Summary of the method: as §1

P. aeruginosa 1226072 = type: cell-based, Pseudomonas aeruginosa; settings: 1226072, 20 h
Summary of the method: as §1

A. baumannii ATCC 17978 = type: cell-based, Acinetobacter baumannii; settings: ATCC 17978, 20 h
Summary of the method: as §1

A. baumannii HUMC1 = type: cell-based, Acinetobacter baumannii; settings: HUMC1, 20 h
Summary of the method: as §1

A. baumannii IHMA 777621 = type: cell-based, Acinetobacter baumannii; settings: IHMA 777621, 20 h
Summary of the method: as §1

[2] = system: Gram-negative ESKAPE pathogens; type: cell-based; settings: 20 h
Experimental: All minimum inhibitory concentrations (MICs) were determined according to the Clinical and Standards Laboratory Institute (CLSI) guidelines. In brief, agar plates were inoculated from glycerol stocks and incubated overnight at 35 °C. Peptide DMSO stocks were dispensed into 96-well round-bottom plates using a TECAN D300e dispenser. Colistin sulfate (Sigma-Aldrich) was dissolved in water and serially diluted in a cation-adjusted Mueller Hinton broth (10 μL per well). Final concentrations of the test compounds were 0.06 to 64 μg/mL. Inocula were prepared by direct colony suspension in NaCl at 0.5 MacFarland, which was further diluted 200-fold in cation-adjusted Mueller Hinton broth for a target inoculum of 2 × 10^5 colony forming units (CFUs)/mL. 100 μL portion of the prepared inoculum was added to each well of the prepared plates containing the test compounds. Plates were sealed with parafilm and incubated for 20 h at 35 °C. Images of all plates were recorded, and MIC was assessed visually.

S. aureus USA300 (MRSA) = type: cell-based, Staphylococcus aureus; settings: USA300, 18 h
ATCC 25922 = type: cell-based, Enterococcus faecalis; settings: ATCC 25922, 20 h
Summary of the method: as §1

E. faecalis ATCC 29212 = type: cell-based, Enterococcus faecalis; settings: ATCC 29212, 20 h
Summary of the method: as §1

E. coli 1214245 = type: cell-based, Escherichia coli; settings: 1214245, 20 h
Summary of the method: as §1

E. coli ATCC 25922 [3] = type: cell-based, Escherichia coli; settings: ATCC 25922, 20 h
Summary of the method: as §1

E. coli 1220120 = type: cell-based, Escherichia coli; settings: 1220120, 20 h
Summary of the method: as §1

K. pneumoniae 1227947 = type: cell-based, Klebsiella pneumoniae; settings: 1227947, 20 h
Summary of the method: as §1

K. pneumoniae 1228586 = type: cell-based, Klebsiella pneumoniae; settings: 1228586, 20 h
Summary of the method: as §1

K. pneumoniae ATCC 13883 = type: cell-based, Klebsiella pneumoniae; settings: ATCC 13883, 20 h
Summary of the method: as §1

S. aureus ATCC 29213 [4] = assay: LIVE/DEAD staining (SYTO 9 / propidium iodide); type: cell-based, Staphylococcus aureus; settings: S. aureus ATCC 29213, 1 × MIC, 15 min, microscopy
Experimental: (§2) This assay was performed according to a previously described procedure.[55],[56] Briefly, overnight cultures of E. coli ATCC 25922 and S. aureus ATCC 29213 were diluted to an OD600 of 0.2 in MHB and mixed with 1 × MIC of Oct-TriA1, Oct-TriA5, and Oct-TriD. Nisin and polymyxin B were used as positive controls at a concentration of 2-fold MIC. At the same time, green fluorescent nucleic acid stain SYTO 9 (excitation, 450–490 nm; emission, 500–550 nm) and red fluorescent nucleic acid stain propidium iodide (excitation, 574–599 nm; emission, 612–682 nm) (LIVE/DEAD Baclight Bacterial Viability Kit, Invitrogen) were added to the above cell suspensions. After mixing and incubating for 15 min in the dark at RT, cells were briefly sedimented via centrifugation and resuspended in fresh MHB. Then, the cell suspensions were loaded on 1.5% agarose pads and analyzed by a Zeiss Imager M2 microscope. Confocal images were obtained at 4 random locations for each sample and visualized using FIJI version 1.51H.[57]

S. aureus UAMS-1625 = type: cell-based, Staphylococcus aureus; settings: S. aureus UAMS-1625 (BV18); CLSI broth dilution, cation-adjusted Mueller Hinton broth, 20 h, 35 °C, read visually
Summary of the method: as §1

S. aureus ATCC 29213 [5] = type: cell-based, Staphylococcus aureus; settings: ATCC 29213, 20 h
Summary of the method: as §1

S. aureus 1126387 = type: cell-based, Staphylococcus aureus; settings: 1126387, 20 h
Summary of the method: as §1

E. faecium IHMA 890472 = type: cell-based, Enterococcus faecium; settings: IHMA 890472, 20 h
Summary of the method: as §1

E. faecium ATCC 51559 = type: cell-based, Enterococcus faecium; settings: ATCC 51559, 20 h
Summary of the method: as §1

E. coli ATCC 25922 [6] = assay: LIVE/DEAD staining (SYTO 9 / propidium iodide); type: cell-based, Escherichia coli; settings: E. coli ATCC 25922, tridecaptins at 1 × MIC, polymyxin 4 μg/mL (2 × MIC), 15 min, microscopy
Experimental: as §2

CN[C@H](CC(C)C)C(=O)N[C@H]1C(=O)N[C@@H](CC(N)=O)C(=O)N[C@H]2C(=O)N[C@H]3C(=O)N[C@H](C(=O)N[C@H](C(=O)O)c4cc(O)cc(O)c4-c4cc3ccc4O)[C@H](O)c3ccc(c(Cl)c3)Oc3cc2cc(c3O[C@@H]2O[C@H](CO)[C@@H](O)[C@H](O)[C@H]2O[C@H]2C[C@](C)(N)[C@H](O)[C@H](C)O2)Oc2ccc(cc2Cl)[C@H]1O [vancomycin, reference compound]
growth of S. aureus USA300 (MRSA) after addition of lipid II [1]: not inhibited

CCCCCCCC(=O)N[C@@H](C(=O)N[C@H](CCN)C(=O)NCC(=O)N[C@H](CO)C(=O)N[C@H](Cc1c[nH]c2ccccc12)C(=O)N[C@@H](CO)C(=O)N[C@@H](CCN)C(=O)N[C@H](CCN)C(=O)N[C@@H](Cc1c[nH]c2ccccc12)C(=O)N[C@@H](CCC(=O)O)C(=O)N[C@H](C(=O)N[C@@H](C(=O)N[C@@H](C)C(=O)O)[C@@H](C)CC)C(C)C)C(C)C [Oct-TriA5] (Octanoyl-[dV][dDab]G[dS][dW]S[Dab][dDab]WEV[d(aIle)]A-OH)
MIC (P. aeruginosa PAO1): 16 µg/mL (≈ 10.3 µM) | MIC (P. aeruginosa 1218019): 4 µg/mL (≈ 2.56 µM) | MIC (P. aeruginosa 1226072): 8 µg/mL (≈ 5.13 µM) | growth of S. aureus USA300 (MRSA) after addition of lipid II [1]: not inhibited | MIC (A. baumannii ATCC 17978): 4 µg/mL (≈ 2.56 µM) | MIC (A. baumannii HUMC1): 8 µg/mL (≈ 5.13 µM) | MIC (A. baumannii IHMA 777621): 4 µg/mL (≈ 2.56 µM) | MICs, range over Gram-negative pathogens [2]: 2 to 16 µg/mL | MIC (S. aureus USA300 (MRSA)): 8 µg/mL (≈ 5.13 µM) | MIC (ATCC 25922): 8 µg/mL (≈ 5.13 µM) | MIC (E. faecalis ATCC 29212): 8 µg/mL (≈ 5.13 µM) | MIC (E. coli 1214245): 4 µg/mL (≈ 2.56 µM) | MIC (E. coli ATCC 25922 [3]): 2 µg/mL (≈ 1.28 µM) | MIC (E. coli 1220120): 4 µg/mL (≈ 2.56 µM) | MIC (K. pneumoniae 1227947): 4 µg/mL (≈ 2.56 µM) | MIC (K. pneumoniae 1228586): 4 µg/mL (≈ 2.56 µM) | MIC (K. pneumoniae ATCC 13883): 4 µg/mL (≈ 2.56 µM) | LIVE/DEAD staining, membrane integrity of S. aureus cells (S. aureus ATCC 29213 [4]): had lysed | MIC (S. aureus UAMS-1625): 8 µg/mL (≈ 5.13 µM) | MIC (S. aureus ATCC 29213 [5]): 8 µg/mL (≈ 5.13 µM) | MIC (S. aureus 1126387): 8 µg/mL (≈ 5.13 µM) | MIC (E. faecium IHMA 890472): 8 µg/mL (≈ 5.13 µM) | MIC (E. faecium ATCC 51559): 8 µg/mL (≈ 5.13 µM)

polymyxin B
LIVE/DEAD staining, membrane integrity of E. coli cells (E. coli ATCC 25922 [6]): death of half of the E. coli cells
